One compound from PMC12564498, “Benzo[d]imidazole–Naphthalen-Arylmethanone Regioisomers as CB1 Ligands: Evaluation of Agonism via an Indirect Cytotoxicity-Based Approach” (International Journal of Molecular Sciences, 2025) can be followed below.

Each structure is given as a SMILES string. Values joined by “and” are separate entries in the source; they are usually repeats but may differ in a detail not shown here. Equal values may be shown once. Where only a bound is given, the exact number is not on record here.

The target in experiment [1] is T1, human cannabinoid CB1 receptor (Homo sapiens, UniProt P21554).
T1 construct: purchased Perkin Elmer Inc., Singapore Pte; Ltd. RBHCB1M400UA; host or cells: HEK293-EBNA cell membranes (overexpressing)
Kind of experiment: biochemical. It is filed as binding.

For experiment [2], the target named is T2, human recombinant cannabinoid CB2 receptor (Homo sapiens, UniProt P34972).
T2 construct: purchased Perkin Elmer Inc., Singapore Pte; Ltd. RBXCB2M400UA; host or cells: HEK293-EBNA cell membranes (overexpressing)
Put plainly: CB2 radioligand displacement binding assay ([3H]CP-55940). For orientation: In a radioligand displacement assay an active substance lowers the binding of a labelled ligand.

A further experiment has as its system HEK293 cells. Kind of experiment: cells. The settings on record: Homo sapiens, HEK293, 72 h, read-out: % Toxicity HEK293T, 0.1 μM, 72 h, MTT, n = 3. How it is done: (§1) HEK293, U87MG, and HL-60 cell lines were seeded in a flat-bottom 96-well plate at a density of 10,000 cells per well. […] All compounds were incubated at 0.1 μM in 200 μL of culture medium supplemented with 10% FBS, in a flat-bottom 96-well plate at a density of 10,000 cells per well, at 37 °C for 72 h. Next, 20 μL of a 5 mg/mL MTT solution was added, and the cells were incubated at 37 °C for 4 h. Then, they were solubilized with 10% sodium dodecyl sulfate (SDS) in 0.1 mM HCl and incubated overnight at 37 °C. Formazan absorbance of each well was measured using the EPOCH microplate reader (Biotek, Winooski, VT, USA) at a wavelength of 570 nm. […]
(§2) promyelocytic leukemia cells (HL-60) were maintained at 5% CO2 and 37 °C in DMEM, EMEM and RPMI medium, respectively containing 10% Fetal Bovine Serum and 100 U/mL penicillin and 100 […]
(§3) Cell viability: ([MTT - (3-(4,5-dimethylthiazol-2-yl)-2,5-diphenyltetrazolium bromide) - formazan] HEK293, U87MG, and HL-60 cells were first quantified to determine the exact number to be used in […]
(§4) with the Beer-Lambert(1).
(§5) HEK293, U87MG and HL-60 cell lines were seed in a flat-bottom 96-wells plate at a density of 10,000 […]
(§6) concentrations (0.001 μM to 10 μM) in 200 μL of respective culture medium supplemented with 10% fetal bovine serum (FBS), at 37 °C for 72 hours. Subsequently, 20 μL of 5 mg/mL MTT solution was added to each well, and cells were incubated at 37 °C for 4 h. The resulting formazan crystals were then solubilized with 10% sodium dodecyl sulfate (SDS) in 0.1 mM HCl, followed by overnight incubation at 37 °C. Untreated cells were used as the control, 0.1% of dimethyl sulfoxide (DMSO) as the vehicle control, and 0.2 % of Triton X-100 as a positive control for cell death. IC 50 toxicity values […]
(§7) same conditions described in the previous paragraph. […]
(§8) determined IC50. The stimulation with both CB ligands was performed simultaneously.
(§9) All compounds were incubated at 0.1 μM in 200 μL of culture medium supplemented with 10% FBS, in a flat-bottom 96-well plate at a density of 10,000 cells per well, at 37°C for 72 hours. Next, 20 μL of a 5 mg/mL MTT solution was added, and the cells were incubated at 37°C for 4 hours. Then, they were solubilized with 10% sodium dodecyl sulfate (SDS) in 0.1 mM HCl and incubated overnight at 37°C. Formazan absorbance of each well was measured using the EPOCH microplate reader (Biotek, USA) at a wavelength of 570 nm.
(§10) [1]Mosorov, V., The Lambert-Beer law in time domain form and its application.

The subject of the next experiment is HL-60 cells. Kind of experiment: cells. The settings on record: Homo sapiens, HL-60, 72 h, read-out: % Toxicity HL-60. How it is done:
as §1, §2, §3, §4, §5, §6, §7, §8, §9, §10

For a further experiment, the system named is U87MG cells. Kind of experiment: cells. Particulars: Homo sapiens, U-87 MG, 72 h, read-out: % Toxicity U87MG, 0.1 μM, 72 h, MTT, n = 3. How it is done:
as §1, §2, §3, §4, §5, §6, §7, §8, §9, §10

T2 sequence (P34972 whole entry): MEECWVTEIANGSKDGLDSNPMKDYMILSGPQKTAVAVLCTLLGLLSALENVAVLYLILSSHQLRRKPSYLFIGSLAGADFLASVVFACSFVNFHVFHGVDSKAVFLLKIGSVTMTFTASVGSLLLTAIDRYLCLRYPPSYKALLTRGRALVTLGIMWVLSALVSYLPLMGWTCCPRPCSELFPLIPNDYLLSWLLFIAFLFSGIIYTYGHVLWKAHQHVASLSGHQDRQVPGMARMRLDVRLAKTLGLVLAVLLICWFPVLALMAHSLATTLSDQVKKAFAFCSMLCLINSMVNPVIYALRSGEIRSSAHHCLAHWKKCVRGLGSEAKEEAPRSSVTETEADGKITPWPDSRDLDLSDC
T1 sequence (P21554 whole entry): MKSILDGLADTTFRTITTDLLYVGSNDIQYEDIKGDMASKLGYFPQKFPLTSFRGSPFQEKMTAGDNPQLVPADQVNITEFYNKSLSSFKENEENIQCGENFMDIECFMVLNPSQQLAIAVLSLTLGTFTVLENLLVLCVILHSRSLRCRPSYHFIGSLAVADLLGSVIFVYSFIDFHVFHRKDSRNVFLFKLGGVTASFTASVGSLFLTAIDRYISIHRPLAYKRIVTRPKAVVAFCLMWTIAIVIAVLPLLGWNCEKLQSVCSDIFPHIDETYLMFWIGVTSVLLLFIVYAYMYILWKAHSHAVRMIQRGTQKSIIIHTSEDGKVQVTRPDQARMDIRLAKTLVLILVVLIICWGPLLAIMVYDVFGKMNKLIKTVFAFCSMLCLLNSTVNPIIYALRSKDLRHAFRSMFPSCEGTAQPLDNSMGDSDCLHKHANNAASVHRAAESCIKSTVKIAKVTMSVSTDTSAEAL

With `COc1cccc(-c2nc3cc(F)ccc3n2C(=O)c2cccc3ccccc23)c1` [Compound 5b, (5-fluoro-2-(3-methoxyphenyl)-1H-benzo[d]imidazol-1-yl)(naphthalen-1-yl)methanone], the Ki (commonly a measure of affinity in units of concentration, obtained from inhibition or displacement) in experiment [1] (Cheng–Prusoff from IC50, [3H]CP-55940 0.5 nM, mean ± SEM n = 3, read-out: CB1 Ki) was ~1.53 µM and 1.53 µM; in experiment [2] (Cheng–Prusoff from IC50, [3H]CP-55940 0.5 nM, mean ± SEM n = 3) it was more than 10 µM. For the same compound, the IC50 – broadly, the concentration that gives 50% inhibition – in experiment [1] ([3H]CP-55940 0.5 nM, hCB1 HEK293-EBNA membranes, mean ± SEM n = 3, read-out: CB1 IC50) is 6.23 ± 3.8 µM; in experiment [2] ([3H]CP-55940 0.5 nM, hCB2 HEK293-EBNA membranes, mean ± SEM n = 3), more than 10 µM. The inhibition at 10 µM in experiment [1] (displacement of [3H]CP-55940 at 10 μM compound, read-out: CB1 Max Tested µM (% Displacement)) is more than 55%; in experiment [2] (displacement of [3H]CP-55940 at 10 μM compound, read-out: CB2 Max Tested µM (% Displacement)), 45%. Also, the values for the cytotoxicity at 0.1 µM with HEK293 cells, in the experiment with HL-60 cells and in the experiment with U87MG cells were 75 ± 17%, 45 ± 17% and 25 ± 14%, respectively.
